# Measured values reported in patent US20260015416A1, “TREATMENT OF DRUG-RESISTANT HEPATOCELLULAR CARCINOMA” (Alentis Therapeutics AG, priority 2022, published 2026).
# Tested on: HCC patient-derived spheroids (primary HCC tumorspheres)
# Experiment: HCC patient-derived spheroid viability (CellTiterGlo 3D, ATP quantification)
# Type: cell-based, human
# Conditions: HCC spheroids from 15 different HCC patients; 6 days; H3L3 10 μg/mL, sorafenib 10 μM, nivolumab 10 μg/mL; vs control mAb; FIG. 1C
# From the text: Fragments of tumor tissue (5×5 mm to 8×8 mm size) were excised from tumor mass of HCC patients (n=15 different donors, Table 2) and then processed with enzymatic and mechanical dissociation to generate clusters of tumor cells similarly as described recently (Crouchet E, et al., Nat Commun 2021; 12:5525; Jühling F, et al., Gut 2021; 70:157-69). Aggregates of cells were assembled into spheroids in 96-well Black/Clear Bottom Low Flange Ultra-Low Attachment Microplates (Corning) and cultured in MammoCult basal medium (STEMCELL Technologies), supplemented with human proliferation supplement (3.4%), hydrocortisone (0.056%), heparin (0.011%) and 50% patients' own serum.
# Tumorspheres were treated for 6 days with 10 μg/mL isotype control mAb, with 10 μg/mL anti-Claudin-1 mAb “H3L3” (Table 1), with sorafenib (10 μM, Selleckchem) or with Nivolumab (10 μg/mL, Selleckchem) with at least duplicates per condition. Tumorsphere viability was assessed at day 6 using CellTiterGlo 3D (Promega) according to the manufacturer's instructions.
row,Molecule,response rate (defined as a mean decrease in cell viability of >15%) [%]
1,nivolumab [reference compound],15
2,"CNC(=O)c1cc(Oc2ccc(NC(=O)Nc3ccc(Cl)c(C(F)(F)F)c3)cc2)ccn1 [sorafenib, 4-[4-[[4-chloro-3-(trifluoromethyl)phenyl]carbamoylamino]phenoxy]-N -methyl-pyridine-2-carboxamide, reference compound]",33
